#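 Where inhibition never reached the appropriate level, the endpoint shown equals the highest concentration tested. Otherwise, values were interpolated linearly from a five-concentration, 48-hour dose response in 96-well plates. At the GI50, growth is halved.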 Active and inactive are the calls of the source. No stated cut-off is given here; in the data, active = GI50 up to about 1.1 µM and inactive = higher.
# How the values were obtained:
# Assay in all cases: growth of human tumour cells (NCI), 48 h
# A549 = tested on: A549
# HCT-15 = tested on: HCT-15
# HOP-62 = tested on: HOP-62
# HT-29 = tested on: HT-29
# IGROV-1 = tested on: IGROV-1
# KM12 = tested on: KM12
# M14 = tested on: M14
# Malme-3M = tested on: Malme-3M
# NCI/ADR-RES = tested on: NCI/ADR-RES
# OVCAR-8 = tested on: OVCAR-8
# PC-3 = tested on: PC-3
# RPMI-8226 = tested on: RPMI-8226
# RXF 393 = tested on: RXF 393
# SF-539 = tested on: SF-539
# SK-MEL-5 = tested on: SK-MEL-5
# SK-OV-3 = tested on: SK-OV-3
# SNB-75 = tested on: SNB-75
# SR = tested on: SR
# TK-10 = tested on: TK-10
# U-251 = tested on: U-251
Compound,GI50 (A549),GI50 (HCT-15) [µM],GI50 (HOP-62),GI50 (HT-29),GI50 (IGROV-1),GI50 (KM12),GI50 (M14),GI50 (Malme-3M),GI50 (NCI/ADR-RES),GI50 (OVCAR-8),GI50 (PC-3),GI50 (RPMI-8226),GI50 (RXF 393),GI50 (SF-539),GI50 (SK-MEL-5),GI50 (SK-OV-3),GI50 (SNB-75),GI50 (SR),GI50 (TK-10),GI50 (U-251)
Cn1c(=O)c2nc(CCCc3ccc([N+](=O)[O-])cc3)[nH]c2n(C)c1=O,> 100 µM (inactive),> 100,> 100 µM (inactive),> 100 µM (inactive),> 100 µM (inactive),> 100 µM (inactive),> 100 µM (inactive),> 100 µM (inactive),> 100 µM (inactive),> 100 µM (inactive),> 100 µM (inactive),> 100 µM (inactive),> 100 µM (inactive),38.5 µM (inactive),59.3 µM (inactive),> 100 µM (inactive),> 100 µM (inactive),> 100 µM (inactive),> 100 µM (inactive),> 100 µM (inactive)
O=S(=O)(c1cc(Cl)ccc1Cl)n1ccnc1,58.2 µM (inactive),24.7,48 µM (inactive),29.2 µM (inactive),41.5 µM (inactive),33.6 µM (inactive),30.3 µM (inactive),31.8 µM (inactive),20.2 µM (inactive),35.4 µM (inactive),47.8 µM (inactive),29 µM (inactive),28 µM (inactive),17.4 µM (inactive),18.8 µM (inactive),> 100 µM (inactive),41.8 µM (inactive),25.4 µM (inactive),24.1 µM (inactive),33 µM (inactive)
c1ccc(C(OCCN2CC3CCC(C2)N3)c2ccccc2)cc1,> 100 µM (inactive),47.6,> 100 µM (inactive),31.6 µM (inactive),94.6 µM (inactive),54 µM (inactive),17.1 µM (inactive),16 µM (inactive),> 100 µM (inactive),> 100 µM (inactive),> 100 µM (inactive),34.1 µM (inactive),43.8 µM (inactive),82.4 µM (inactive),18.5 µM (inactive),> 100 µM (inactive),50.1 µM (inactive),31.6 µM (inactive),> 100 µM (inactive),> 100 µM (inactive)
COC(=O)C1=C(O)C(C(=O)OC)[C@]2(O)[C@H](C(=O)OC)[C@H]1C[C@@H](c1ccc(F)cc1)[C@H]2C(=O)OC (some centres not stated),19.3 µM (inactive),12.3,22.6 µM (inactive),16.6 µM (inactive),18.8 µM (inactive),18.1 µM (inactive),10.4 µM (inactive),12.9 µM (inactive),4.98 µM (inactive),20.9 µM (inactive),12.2 µM (inactive),16.2 µM (inactive),11.2 µM (inactive),18.2 µM (inactive),12.3 µM (inactive),22.6 µM (inactive),18.1 µM (inactive),10.9 µM (inactive),21.9 µM (inactive),15.4 µM (inactive)
COC(=O)NC1C(C)OC(OC2C/C=C(/C)C3C=CC4C(OC5CC(OC6CC(O)C(OC7CC(O)C(OC)C(C)O7)C(C)O6)C(O)C(C)O5)C(C)CC(C)C4C3(C)C(=O)C3=C(O)C4(CC(C)C(CO)=CC4/C=C\2C)OC3=O)CC1(C)[N+](=O)[O-] (configuration not stated),22.6 µM (inactive),18,15.4 µM (inactive),15.7 µM (inactive),8.93 µM (inactive),14.5 µM (inactive),9.29 µM (inactive),7.93 µM (inactive),69.5 µM (inactive),9.38 µM (inactive),15.9 µM (inactive),3.13 µM (inactive),12.3 µM (inactive),16.9 µM (inactive),15.6 µM (inactive),12 µM (inactive),19.7 µM (inactive),14.8 µM (inactive),10 µM (inactive),10.9 µM (inactive)
COc1ccc(C2CC(c3ccc(NS(=O)(=O)c4cc([N+](=O)[O-])ccc4C)cc3)=NN2S(=O)(=O)c2cc([N+](=O)[O-])ccc2C)cc1 (configuration not stated),34.5 µM (inactive),36.2,80 µM (inactive),50.4 µM (inactive),44.4 µM (inactive),46 µM (inactive),41.1 µM (inactive),34.8 µM (inactive),40.8 µM (inactive),71.9 µM (inactive),33.8 µM (inactive),23.6 µM (inactive),> 100 µM (inactive),–,42.2 µM (inactive),85.3 µM (inactive),> 100 µM (inactive),51.4 µM (inactive),52.6 µM (inactive),36.8 µM (inactive)
COCC12CCC(OC)C34C5CC6(O)C(OC)C=C(C5C6OC(=O)c5ccccc5)C(C(OC)C13)C4N(C)C2 (configuration not stated),> 100 µM (inactive),> 100,> 100 µM (inactive),> 100 µM (inactive),> 100 µM (inactive),> 100 µM (inactive),> 100 µM (inactive),> 100 µM (inactive),> 100 µM (inactive),> 100 µM (inactive),> 100 µM (inactive),> 100 µM (inactive),> 100 µM (inactive),> 100 µM (inactive),> 100 µM (inactive),> 100 µM (inactive),32.1 µM (inactive),> 100 µM (inactive),> 100 µM (inactive),> 100 µM (inactive)
CCOC(=O)[C@@H](Cc1ccc(CCl)cc1)NC(C)=O,97.1 µM (inactive),27.4,23.9 µM (inactive),75.3 µM (inactive),23.7 µM (inactive),20.2 µM (inactive),24.8 µM (inactive),19.2 µM (inactive),19.9 µM (inactive),50.8 µM (inactive),29 µM (inactive),22.6 µM (inactive),14 µM (inactive),18.3 µM (inactive),16 µM (inactive),98.2 µM (inactive),26.6 µM (inactive),29.4 µM (inactive),4.71 µM (inactive),19.6 µM (inactive)
Cc1ccnc(NS(=O)(=O)c2ccc(NC(=O)c3ccc4nc5ccccc5c(Nc5ccc(S(=O)(=O)Nc6nccc(C)n6)cc5)c4c3)cc2)n1,> 100 µM (inactive),> 100,> 100 µM (inactive),> 100 µM (inactive),63.1 µM (inactive),29 µM (inactive),> 100 µM (inactive),78.5 µM (inactive),> 100 µM (inactive),> 100 µM (inactive),> 100 µM (inactive),57.8 µM (inactive),13.6 µM (inactive),52 µM (inactive),27.7 µM (inactive),> 100 µM (inactive),50.4 µM (inactive),21.9 µM (inactive),> 100 µM (inactive),19.8 µM (inactive)
O=C(CC1(O)C(=O)Nc2c(Cl)cc(Cl)cc21)c1cccc([N+](=O)[O-])c1 (configuration not stated),39.5 µM (inactive),48.5,50.6 µM (inactive),28.9 µM (inactive),18.2 µM (inactive),24.5 µM (inactive),22.8 µM (inactive),19.4 µM (inactive),29 µM (inactive),29.9 µM (inactive),32.1 µM (inactive),28.2 µM (inactive),28.6 µM (inactive),27.9 µM (inactive),17.2 µM (inactive),38.6 µM (inactive),15.2 µM (inactive),51.9 µM (inactive),> 55.8 µM (inactive),27.7 µM (inactive)
COC(=O)c1nc2n(n1)-c1ccccc1C(=O)N(Cc1ccccc1)C2,> 100 µM (inactive),> 100,> 100 µM (inactive),> 100 µM (inactive),> 100 µM (inactive),> 100 µM (inactive),> 100 µM (inactive),> 100 µM (inactive),> 100 µM (inactive),> 100 µM (inactive),> 100 µM (inactive),> 100 µM (inactive),> 100 µM (inactive),> 100 µM (inactive),> 100 µM (inactive),> 100 µM (inactive),–,> 100 µM (inactive),> 100 µM (inactive),> 100 µM (inactive)
COc1cccc2c1C(=O)c1c(O)c3c(c(O)c1C2=O)CC(O)(C(=O)CO)CC3OC1CC(N2CCOCC2C#N)C(O)C(C)O1 (configuration not stated),< 0.0001 µM (active),< 0.0001,< 0.0001 µM (active),< 0.0001 µM (active),> 0.01 µM (active),< 0.0001 µM (active),< 0.0001 µM (active),< 0.0001 µM (active),< 0.0001 µM (active),< 0.0001 µM (active),< 0.0001 µM (active),< 0.0001 µM (active),> 0.01 µM (active),< 0.0001 µM (active),< 0.0001 µM (active),> 0.01 µM (active),> 0.01 µM (active),< 0.0001 µM (active),< 0.0001 µM (active),< 0.0001 µM (active)
COc1cc(/C=N/c2ccc(S(N)(=O)=O)cc2)cc(OC)c1,> 50 µM (inactive),29.6,> 50 µM (inactive),> 50 µM (inactive),18.2 µM (inactive),30.1 µM (inactive),> 50 µM (inactive),> 50 µM (inactive),> 50 µM (inactive),> 50 µM (inactive),> 50 µM (inactive),28 µM (inactive),> 50 µM (inactive),25.3 µM (inactive),> 50 µM (inactive),> 50 µM (inactive),25.6 µM (inactive),16.4 µM (inactive),> 50 µM (inactive),> 50 µM (inactive)
O=C1/C(=C\c2c(-c3ccccc3)[nH]n(-c3ccccc3)c2=O)C(c2ccccc2)=NN1c1ccccc1,> 100 µM (inactive),> 100,> 100 µM (inactive),> 100 µM (inactive),> 100 µM (inactive),> 100 µM (inactive),> 100 µM (inactive),> 100 µM (inactive),> 100 µM (inactive),> 100 µM (inactive),> 100 µM (inactive),> 100 µM (inactive),> 100 µM (inactive),> 100 µM (inactive),–,> 100 µM (inactive),> 100 µM (inactive),20 µM (inactive),> 100 µM (inactive),> 100 µM (inactive)
